According to article PMC4448982, “LP-925219 maximizes urinary glucose excretion in mice by inhibiting both renal SGLT1 and SGLT2” (Pharmacology Research & Perspectives, 2015):
Where two headings read alike, the source gives them in different places.

Assays:
[1] = Pharmacokinetics in mice (intravenous and oral); format: in vivo; settings: mouse
Description: Adult male C57BL/6J mice (25–35 g) were maintained on chow diet, had free access to water and were conscious through the study. LP-925219 was delivered by bolus intravenous administration at 1 mg/kg or by oral gavage at a dose of 10 mg/kg; 0.1% Tween-80 served as vehicle. Following intravenous injection, serial blood samples were collected in Ethylenediaminetetraacetic acid-containing tubes through 6 h. Following oral administration, serial blood samples were collected through 24 h. The plasma fraction was immediately separated by centrifugation at 4°C, and then stored at −20°C until sample analysis. To quantify LP-925219 concentrations, plasma samples were extracted with acetonitrile-water-formic acid (80:20:0.1) containing verapamil as internal standard at a concentration of 1 μmol/L. Extracted samples were analyzed by LC/MS-MS using a Surveyor HPLC system with a TSQ triple quadrupole mass spectrometer coupled with an Electrospray ionization source (Thermo Fisher Scientific, Waltham, MA). XCalibur 2.0 SR2 software (Thermo Fisher Scientific) was used for instrument control and data calculation. A rapid LC gradient with ammonium acetate […] (pH ∼6) and acetonitrile was used. Calculations were made by normalizing the area counts of compound to the area counts of the internal standard (relative area counts).
All plasma concentration versus time data for LP-925219 were analyzed using noncompartmental analysis, either extravascular administration (for oral administration) or bolus IV administration (for intravenous administration), of Phoenix™ WinNonlin® (version 6.3, Pharsight, Inc. Mountain View, CA). The half-life during the terminal phase was calculated from the elimination rate constant (λ) determined by the linear regression analysis of the log-linear part of the plasma concentration curve. The LP-925219 AUC0–t was calculated using linear up/log down trapezoidal method up to the last measured concentration at time t (Ct). AUC0–∞ was calculated as AUC0–t + Ct/λ. Clearance (CL) was calculated by dose/AUC0–∞. Other pharmacokinetic parameters included plasma peak concentration (Cmax), the time of Cmax (Tmax) and volume of distribution at steady state (Vss). Oral bioavailability (%F) was calculated by the equation: %F = (AUC0–∞ PO/AUC0–∞ IV) × (Dose IV/Dose PO).

human SGLT1 [2] = molecular target: T1, human SGLT1 (Homo sapiens, UniProt P13866); assay: 14C-AMG uptake assay, HEK293 cells expressing human SGLT1; format: cell-based; design: expressed in transfected cells; settings: mean ± SD
T1 sequence (P13866 1-664): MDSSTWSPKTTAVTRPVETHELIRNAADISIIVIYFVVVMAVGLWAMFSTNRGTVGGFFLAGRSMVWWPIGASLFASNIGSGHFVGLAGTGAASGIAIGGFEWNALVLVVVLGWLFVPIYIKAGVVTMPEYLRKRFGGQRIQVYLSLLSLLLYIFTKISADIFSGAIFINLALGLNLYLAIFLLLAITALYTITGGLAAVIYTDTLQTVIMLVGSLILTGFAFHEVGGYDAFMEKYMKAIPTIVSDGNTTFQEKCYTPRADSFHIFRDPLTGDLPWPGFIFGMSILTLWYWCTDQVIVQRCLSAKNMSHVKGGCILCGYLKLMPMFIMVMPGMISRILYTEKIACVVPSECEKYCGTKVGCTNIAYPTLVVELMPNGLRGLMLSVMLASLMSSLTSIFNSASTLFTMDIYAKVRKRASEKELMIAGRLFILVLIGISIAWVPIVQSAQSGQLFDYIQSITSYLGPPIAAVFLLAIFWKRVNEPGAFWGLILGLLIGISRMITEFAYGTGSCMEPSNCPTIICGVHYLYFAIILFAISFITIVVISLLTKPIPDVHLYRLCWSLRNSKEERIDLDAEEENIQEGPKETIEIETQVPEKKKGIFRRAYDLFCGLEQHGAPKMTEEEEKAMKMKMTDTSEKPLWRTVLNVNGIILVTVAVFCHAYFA
Source text: Methods for generating cell lines expressing mouse, rat, and dog SGLT1 and SGLT2 are published (Powell et al. [2013b], [2014]). Full-length coding sequence of human SGLT1 (NP_000334) and human SGLT2 (NP_003032.1) with an HA-tag at the N-terminus were cloned into the mammalian expression vector pIRESpuro2 (Clontech, Mountain View, CA). HEK293 cells (ATCC, Manassas, VA) were transfected with the pIRESpuro2 vector containing human SGLT1 or SGLT2 and bulk stable cell lines were selected in the presence of 0.5 μg/mL of puromycin.
Cell lines expressing SGLT1 or SGLT2 were plated into poly-D-lysine-coated 384-well plates, and culture overnight in cell growth medium. Cells were washed, and then incubated in uptake buffer ([…], […] KCl, […] CaCl2, […] MgCl2, […] HEPES/Tris, 1 mg/mL of bovine serum albumin, pH7.4) containing [^14C]α-methylglucopyranoside (^14C-AMG), a nonmetabolizable glucose analog specific for sodium-dependent glucose transporters (Wright and Turk [2004]). The inhibition of SGLT1 or SGLT2 was determined by measuring SGLT1/2-mediated ^14C-AMG uptake in the presence of increasing compound concentrations of LP-925219. […] Standard sigmoidal dose–response model curves were fitted, and the IC50 value was computed as the LP-925219 concentration that inhibited the ^14C-AMG uptake by 50% between baseline and maximum uptake.

human SGLT1 [3] = molecular target: T1, human SGLT1; assay: Compound washout study, cells expressing human SGLT1
Source text: Cells expressing human SGLT2 were studied using the above protocol. […] Cells expressing human SGLT2 were studied using the above protocol.

[4] = male, C57BL/6J, plasma, 1 mg/kg intravenous
[5] = male, C57BL/6J, plasma, 10 mg/kg oral

COc1ccc(Cc2cc([C@@H]3O[C@H](SC)[C@@H](O)[C@H](O)[C@H]3O)ccc2Cl)cc1 [LP-925219]
AUC(0-inf) [1, 4]: 1.41 ± 0.04 µM·h
AUC(0-t) [1, 4]: 1.214 ± 0.012 µM·h
Cmax [1, 4]: 1440 ± 97 nM
clearance [1, 4]: 29 ± 1 mL/min/kg
half-life [1, 4]: 168 ± 42 min
Vd ([1]; male, C57BL/6J, plasma, 1 mg/kg intravenous, read-out: Vss): 4.4 ± 0.6 L/kg
AUC(0-t) [1, 5]: 11.2 µM·h
Cmax [1, 5]: 3160 ± 802 nM
Tmax [1, 5]: 18 min
half-life [1, 5]: 420 ± 54 min
bioavailability ([1]; male, C57BL/6J, plasma, 10 mg/kg oral vs 1 mg/kg intravenous, read-out: %F): 87 ± 21%
concentration at 6 h ([1]; male, C57BL/6J, plasma, 10 mg/kg oral, 6 h, read-out: plasma level at 6 h postdosing): 617 ± 107 nM
concentration at 24 h ([1]; male, C57BL/6J, plasma, 10 mg/kg oral, 24 h, read-out: plasma level at 24 h post dosing): 100 ± 43 nM
bioavailability ([1]; male, C57BL/6J, plasma, 10 mg/kg oral, read-out: bioavailability (%F)): 87%
AUC0-∞ ([1]; 10 mg/kg oral): 12,214 ± 3037 nmo/L*h
plasma level at 24 h post dosing ([1]; 10 mg/kg oral, 24 h, 10 mg/kg): 100 nmol/L
IC50 (human SGLT1 [2]): 15.9 ± 4.2 nM
IC50 (human SGLT1 [3]; no wash protocol): 13 nM
IC50 (human SGLT1 [3]; washout protocol, 18-20 h recovery after 30 min treatment): 1310 nM
